Results as given in patent US11590089B2, “Beta-2 selective adrenergic receptor agonists” (The Board of Trustees of the Leland Stanford Junior …, priority 2017, dated 2023).
Counter-ions that a name gives are not always drawn. Like-named read-outs stand apart in the source and are kept apart here.

Legend:
β1-AR [1] = target: T1, β1-AR (Homo sapiens, UniProt P08588); assay: β-arrestin-2 recruitment assay at β1-AR; type: cell-based; conditions: for β-arrestin-2 recruitment β1-AR Emax: relative to norepinephrine
Target sequence in this assay (P08588 whole entry): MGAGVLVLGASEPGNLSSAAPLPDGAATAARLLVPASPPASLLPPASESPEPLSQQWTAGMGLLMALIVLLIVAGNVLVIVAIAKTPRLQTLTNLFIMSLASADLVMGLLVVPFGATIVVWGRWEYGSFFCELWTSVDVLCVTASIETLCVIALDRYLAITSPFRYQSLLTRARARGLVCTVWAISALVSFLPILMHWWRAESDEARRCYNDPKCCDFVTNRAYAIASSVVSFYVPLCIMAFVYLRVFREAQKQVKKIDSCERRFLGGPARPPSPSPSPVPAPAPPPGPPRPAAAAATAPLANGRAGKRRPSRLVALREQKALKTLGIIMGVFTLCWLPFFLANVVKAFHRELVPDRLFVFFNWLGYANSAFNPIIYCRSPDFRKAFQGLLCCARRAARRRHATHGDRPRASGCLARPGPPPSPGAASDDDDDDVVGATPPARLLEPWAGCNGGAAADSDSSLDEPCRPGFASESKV
Target sequence in this assay (P32121 whole entry partner): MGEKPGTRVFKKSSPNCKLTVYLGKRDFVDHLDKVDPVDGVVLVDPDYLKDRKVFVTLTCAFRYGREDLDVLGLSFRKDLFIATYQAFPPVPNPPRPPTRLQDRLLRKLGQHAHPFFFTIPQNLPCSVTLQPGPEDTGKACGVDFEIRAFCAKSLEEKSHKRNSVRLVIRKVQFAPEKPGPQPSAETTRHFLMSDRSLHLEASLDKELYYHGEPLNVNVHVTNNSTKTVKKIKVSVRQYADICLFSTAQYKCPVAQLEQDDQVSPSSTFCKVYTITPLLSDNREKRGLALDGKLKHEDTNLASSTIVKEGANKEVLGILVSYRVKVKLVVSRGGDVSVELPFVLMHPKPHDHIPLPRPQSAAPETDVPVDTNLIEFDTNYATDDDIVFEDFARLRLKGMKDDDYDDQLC

β1-AR [2] = target: T1, β1-AR; assay: radioligand binding assay, β1-AR, [3H]CGP12177; conditions: values given as a range are from screening experiments with a low number of repeats
Method: (§1) The binding affinities of exemplary compounds of interest at β1AR and β2AR were evaluated in a binding assay.
Target sequence in this assay (P08588 whole entry): as the sequence (P08588 whole entry) above

β2-AR [3] = target: T2, β2-AR (Homo sapiens, UniProt P07550); assay: radioligand binding assay, β2-AR, [3H]CGP12177
Method: as §1
Target sequence in this assay (P07550 whole entry): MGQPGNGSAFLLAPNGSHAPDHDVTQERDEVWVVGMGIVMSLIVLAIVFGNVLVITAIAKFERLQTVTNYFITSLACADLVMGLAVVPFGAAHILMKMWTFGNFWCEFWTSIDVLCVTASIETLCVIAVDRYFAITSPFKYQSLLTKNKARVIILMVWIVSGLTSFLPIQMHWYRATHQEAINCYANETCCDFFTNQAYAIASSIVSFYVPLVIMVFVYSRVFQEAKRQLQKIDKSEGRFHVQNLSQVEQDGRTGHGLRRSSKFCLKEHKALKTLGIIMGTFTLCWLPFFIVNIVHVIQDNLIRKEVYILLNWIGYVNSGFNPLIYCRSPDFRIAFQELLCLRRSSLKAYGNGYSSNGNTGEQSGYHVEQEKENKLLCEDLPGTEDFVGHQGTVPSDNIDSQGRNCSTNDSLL

β2-AR [4] = target: T2, β2-AR; assay: β-arrestin-2 recruitment assay at β2-AR; type: cell-based; conditions: for EC50: ranges from screening experiments with a low number of repeats; for β-arrestin-2 recruitment β2-AR Emax: relative to norepinephrine
Target sequence in this assay (P07550 whole entry): as above
Target sequence in this assay (P32121 whole entry partner): as the sequence (P32121 whole entry partner) above

α2A-AR = target: T3, α2A-AR (Homo sapiens, UniProt P08913); assay: radioligand binding assay, α2A-AR, [3H]RX821002; conditions: radioligand [3H]RX821002; values given as a range are from screening experiments with a low number of repeats
T3 sequence (P08913 1-465): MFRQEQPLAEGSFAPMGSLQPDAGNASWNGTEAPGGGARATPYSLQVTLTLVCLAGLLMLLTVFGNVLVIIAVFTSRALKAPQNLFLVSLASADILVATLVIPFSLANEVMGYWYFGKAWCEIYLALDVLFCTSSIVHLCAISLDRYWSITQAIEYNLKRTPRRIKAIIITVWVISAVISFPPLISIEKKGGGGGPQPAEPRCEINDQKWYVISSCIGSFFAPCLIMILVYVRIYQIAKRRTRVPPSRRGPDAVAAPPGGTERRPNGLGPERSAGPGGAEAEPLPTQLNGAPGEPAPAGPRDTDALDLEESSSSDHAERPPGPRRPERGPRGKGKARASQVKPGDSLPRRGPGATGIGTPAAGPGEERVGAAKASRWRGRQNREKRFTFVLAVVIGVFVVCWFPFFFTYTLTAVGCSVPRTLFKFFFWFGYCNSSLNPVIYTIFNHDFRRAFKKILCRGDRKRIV

•1A-AR = target: T4, •1A-AR (Homo sapiens, UniProt P35348); assay: radioligand binding assay, α1A-AR, [3H]prazosin
T4 sequence (P35348 1-466): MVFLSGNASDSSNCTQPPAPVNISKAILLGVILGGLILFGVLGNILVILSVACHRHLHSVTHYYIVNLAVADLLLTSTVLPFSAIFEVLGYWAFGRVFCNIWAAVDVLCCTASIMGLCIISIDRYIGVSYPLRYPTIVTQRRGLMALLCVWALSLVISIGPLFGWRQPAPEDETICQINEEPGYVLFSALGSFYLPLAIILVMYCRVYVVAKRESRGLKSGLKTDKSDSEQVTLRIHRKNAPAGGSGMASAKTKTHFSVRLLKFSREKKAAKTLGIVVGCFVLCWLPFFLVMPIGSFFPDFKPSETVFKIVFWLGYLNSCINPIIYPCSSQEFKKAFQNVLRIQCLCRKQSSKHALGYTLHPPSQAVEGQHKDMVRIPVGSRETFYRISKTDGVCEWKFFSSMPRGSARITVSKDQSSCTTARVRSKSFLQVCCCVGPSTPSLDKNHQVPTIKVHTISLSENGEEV

[5] = radioligand [3H]CGP12177, read-out: Ki β1-AR [3H]CGP12177
[6] = radioligand [3H]CGP12177, values given as a range are from screening experiments with a low number of repeats, read-out: Ki β2-AR [3H]CGP12177
[7] = n.d. = could not be determined because of lack of activity, read-out: β-arrestin-2 recruitment β2-AR EC50
[8] = Ki β1-AR [3H]CGP12177, radioligand [3H]CGP12177
[9] = β-arrestin-2 recruitment β2-AR EC50, n.d. = could not be determined because of lack of activity
[10] = n.d. = could not be determined because of lack of activity, ranges from screening experiments with a low number of repeats, read-out: β-arrestin-2 recruitment β1-AR EC50
[11] = radioligand [3H]prazosin, values given as a range are from screening experiments with a low number of repeats, read-out: Ki •1A-AR [3H]prazosin

Structure (SMILES) | β-arrestin-2 recruitment β1-AR Emax (β1-AR [1]) [% norepinephrine] | Ki (β1-AR [2]; [5]) [µM] | Ki (β2-AR [3]; [6]) [µM] | EC50 (β2-AR [4]; [7]) [µM] | β-arrestin-2 recruitment β2-AR Emax (β2-AR [4]) [% norepinephrine] | further results
CNC1CCc2cc(O)c(O)cc2C1 (racemic) [AS LM31] | <5 | 44 | 80 | 12 | 22 | 
CNC1CCc2c(ccc(O)c2O)C1 (racemic) [AS LM33] | <10 | 90 | 46 | 2.1 | 125 | 
CC(C)N[C@H]1CCc2cc(O)c(O)cc2[C@H]1O (relative stereo) [JS 3-71, cis-2-(isopropylamino)-1,2,3,4-tetrahydronaphthalene-1,6,7-triol trifluoroacetate] |  | > 50 | > 50 |  |  | 
CC(C)N[C@@H]1CCc2cc(O)c(O)cc2[C@H]1O (relative stereo) [JS 3-89, trans-2-(Isopropylamino)-1,2,3,4-tetrahydronaphthalene-1,6,7-triol trifluoroacetate] |  | > 50 | > 50 |  |  | 
NC1CCc2c(ccc(O)c2O)C1 (single isomer, unassigned) [AS LM27] | <5 | 46 | 7.6 | 2.1 | 84 | 
NC1CCc2c(ccc(O)c2O)C1 (single isomer, unassigned) [AS LM28] | <10 | > 100 | 29 | 11 | 77 | 
CC(C)N[C@@H]1CCc2c(ccc(O)c2O)[C@H]1O [AS424A, (R,R)-1,5,6-trihydroxy-N-isopropyl-1,2,3,4-tetrahydronaphthalen-2-aminium TFA] | 82 |  |  |  | 103 | EC50 (β1-AR [1]): 1.2 µM; Ki (β1-AR [2]; [8]): 2.1 µM; selectivity for β2-AR over β1-AR (β2-AR [3]): high selectivity; Ki (β2-AR [3]; read-out: Ki β2-AR [3H]CGP12177): 0.032 µM; Ki (α2A-AR): 71 µM; EC50 (β2-AR [4]; [9]): 0.024 µM
CC(C)N[C@H]1CCc2c(ccc(O)c2O)[C@H]1O [AS424B, (R,S)-1,5,6-trihydroxy-N-isopropyl-1,2,3,4-tetrahydronaphthalen-2-aminium TFA] |  |  |  |  | 91 | Ki (β1-AR [2]; [8]): 24 µM; Ki (β2-AR [3]; Ki β2-AR [3H]CGP12177): 0.45 µM; EC50 (β2-AR [4]; [9]): 0.35 µM
CN[C@@H]1CCc2c(ccc(O)c2O)[C@H]1O [AS443, (5R,6R)-6-(methylamino)-5,6,7,8-tetrahydronaphthalene-1,2,5-triol] | 60 | 38 | 0.14 | 0.026 | 112 | EC50 (β1-AR [1]; [10]): 38 µM; Ki (•1A-AR; [11]): 17 µM; Ki (α2A-AR): 13 µM
N[C@@H]1CCc2c(ccc(O)c2O)[C@H]1O [AS446, (5R,6R)-6-amino-5,6,7,8-tetrahydronaphthalene-1,2,5-triol×TFA] | 56 | 16 | 0.68 |  | 107 | EC50 (β1-AR [1]; [10]): 18 µM; Ki (•1A-AR): 18 µM; Ki (α2A-AR): 15 µM; EC50 (β2-AR [4]; [9]): 0.1 µM
N[C@H]1CCc2cc(O)c(O)cc2C1 [AS LM15] | <5 | 31 |  |  | <5 | 
N[C@@H]1CCc2cc(O)c(O)cc2C1 [AS LM16] | <5 | 83 | 76 |  | <5 | 
O=C(O)C(F)(F)F.Oc1ccc2c(c1O)CC[C@H](NC1CCCC1)[C@H]2O [JS 3-51, (1 S,2S)-6-(cyclopentylamino)-5,6,7,8-tetrahydronaphthalene-1,2,5-triol trifluoroacetate] |  | 27 | 0.24 | 0.12 | 93 | 
Oc1ccc2c(c1O)CC[C@H](NC1CCCC1)[C@@H]2O [JS 3-55, (1R,2S)-6-(cyclopentylamino)-5,6,7,8-tetrahydronaphthalene-1,2,5-triol trifluoroacetate] |  | > 50 | > 20 |  |  | 
Oc1ccc2c(c1O)CC[C@@H](NC1CCCC1)[C@H]2O [JS 3-65, (1 S,2R)-6-(Cyclopentylamino)-5,6,7,8-tetrahydronaphthalene-1,2,5-triol trifluoroacetate] |  | > 50 | 2.5 |  |  | 
CC(C)N[C@H]1CCc2c(ccc(O)c2O)[C@@H]1O [JS 3-97] |  |  |  |  |  | Ki (β1-AR [2]; [8]): > 50 µM; Ki (β2-AR [3]; Ki β2-AR [3H]CGP12177): 0.37 µM
CC(C)N[C@@H]1CCc2c(ccc(O)c2O)[C@@H]1O [JS 3-99] |  |  |  |  | 100 | Ki (β1-AR [2]; [8]): 49 µM; Ki (β2-AR [3]; Ki β2-AR [3H]CGP12177): 1.9 µM; EC50 (β2-AR [4]; [9]): 1.2 µM
O=C(O)C(F)(F)F.Oc1ccc2c(c1O)CC[C@@H](NC1CCCC1)[C@@H]2O [JS 3-159, (1R,2R)-6-(Cyclopentylamino)-5,6,7,8-tetrahydronaphthalene-1,2,5-triol trifluoroacetate] |  | 7.1 | 0.025 | 0.018 | 97 | 
Oc1ccc2c(c1O)CC[C@@H](NCCCF)[C@@H]2O [LM 75, (5R,6R)-6-((3-fluoropropyl)amino)-5,6,7,8-tetrahydronaphthalene-1,2,5-triol] | 90 | 7.5 | 0.097 | 0.025 | 111 | EC50 (β1-AR [1]; [10]): 10 µM; Ki (•1A-AR): 23 µM; Ki (α2A-AR): 18 µM
Oc1ccc2c(c1O)CC[C@@H](NCCF)[C@@H]2O [LM 80, (5R,6R)-6-((2-fluoroethyl)amino)-5,6,7,8-tetrahydronaphthalene-1,2,5-triol] | 81 | 7 | 0.28 | 0.066 | 110 | EC50 (β1-AR [1]; [10]): 3 µM; Ki (•1A-AR; [11]): > 90 µM; Ki (α2A-AR): 30 µM
NC[C@H](O)c1ccc(O)c(O)c1 [noradrenaline, reference compound] | 100 |  |  |  | 100 | 
